The record followed here is patent US6680282B2 (priority 1997, dated 2004).

The structures appear in SMILES notation.

For one assay, the system named is Pyricularia oryzae. Description: whole plant or invertebrate. Format: in vivo. The following applies: 100 ppm spray, rice seedling (Jikkoku) 4-leaf stage, lesion number on fourth leaf 6 days after inoculation.
In the case of `CCc1cc(C(C)CC)cc2c(OC(C)=O)c(C)c(C)nc12` (racemic) [Compound No. 348], the “rank (control effect, protective value from lesion number)” value is “A (protective value ≧80%)”. The same measure, in the same setting: then `CC(=O)Oc1c(C)c(C)nc2ccc(C)cc12` [Compound No. 2], with “B (protective value 50 to 79%)”.

With `CCc1ccc2nc(C)c(C)c(O)c2c1` [Compound No. 9], the “rank (control effect, protective value from lesion number)” value was “A (protective value ≧80%)”.

As for `CCCc1ccc2nc(C)c(C)c(O)c2c1` [Compound No. 13], the “rank (control effect, protective value from lesion number)” value is given as “A (protective value ≧80%)”. Consider `CCCCCCc1ccc2nc(C)c(C)c(O)c2c1` [Compound No. 107], for which the “rank (control effect, protective value from lesion number)” value is recorded as “A (protective value ≧80%)”. In the case of `CCCCCCc1ccc2nc(C)c(C)c(OC(C)=O)c2c1` [Compound No. 108], the “rank (control effect, protective value from lesion number)” value is “A (protective value ≧80%)”. Take `Cc1nc2ccc(C3CCCCC3)cc2c(O)c1C` [Compound No. 111]: the “rank (control effect, protective value from lesion number)” value is “B (protective value 50 to 79%)”.

`CC(=O)Oc1c(C)c(C)nc2ccc(C3CCCCC3)cc12` [Compound No. 112]: the “rank (control effect, protective value from lesion number)” value was “A (protective value ≧80%)”.

`CCCCCCCCc1ccc2nc(C)c(C)c(O)c2c1` [Compound No. 125]: the “rank (control effect, protective value from lesion number)” value is on record as “B (protective value 50 to 79%)”.

As to `CCCCCCCCc1ccc2nc(C)c(C)c(OC(C)=O)c2c1` [Compound No. 126], the “rank (control effect, protective value from lesion number)” value was “A (protective value ≧80%)”.

`Cc1nc2ccc(C(F)(F)F)cc2c(O)c1C` [Compound No. 131]: the “rank (control effect, protective value from lesion number)” value is given as “B (protective value 50 to 79%)”.

In the case of `CC(=O)Oc1c(C)c(C)nc2c(C)cc(C)cc12` [Compound No. 262], the “rank (control effect, protective value from lesion number)” value is “B (protective value 50 to 79%)”. On the same count and under the same terms, the entry for `CC(=O)Oc1c(C)c(C)nc2c(C(C)C)cc(C(C)C)cc12` [Compound No. 274] is “A (protective value ≧80%)”; for `CC(=O)Oc1c(C)c(C)nc2c(C)cc(C3CCCC3)cc12` [Compound No. 352, 4-Acetoxy-6-c-pentyl-8-methyl-2,3-dimethylquinoline] it is “A (protective value ≧80%)”. The same measure, in the same setting: the entry for `CCCc1ccc2nc(C)c(C)c(OC(C)=O)c2c1` [compound 14] is “A (protective value ≧80%)”; for `Cc1nc2ccc(OC(C)C)cc2c(O)c1C` [compound 23] it is “B (protective value 50 to 79%)”. For `CCCCc1ccc2nc(C)c(CC)c(OC(C)=O)c2c1` [compound 44], the “rank (control effect, protective value from lesion number)” value was “A (protective value ≧80%)”. As to `CCCCc1ccc2nc(C)c(CCCC)c(OC(C)=O)c2c1` [compound 46], the “rank (control effect, protective value from lesion number)” value was “A (protective value ≧80%)”.

Consider `CCCCc1ccc2nc(CC)c(C)c(OC(C)=O)c2c1` [compound 47], for which the “rank (control effect, protective value from lesion number)” value is on record as “A (protective value ≧80%)”.

For the compound `CCCCc1ccc2nc(CCC)c(C)c(OC(C)=O)c2c1` [compound 48], the “rank (control effect, protective value from lesion number)” value is recorded as “A (protective value ≧80%)”. Take `CCCCc1ccc2nc(CCCC)c(C)c(OC(C)=O)c2c1` [compound 49]: the “rank (control effect, protective value from lesion number)” value was “A (protective value ≧80%)”. In the case of `CCC(C)c1ccc2nc(C)c(C)c(O)c2c1` (centres unmarked) [compound 54], the “rank (control effect, protective value from lesion number)” value is “A (protective value ≧80%)”. `CCC(C)c1ccc2nc(C)c(C)c(OC(=O)C3CC3)c2c1` (centres unmarked) [compound 57]: the “rank (control effect, protective value from lesion number)” value was “A (protective value ≧80%)”. As to `CCC(C)c1ccc2nc(C)c(C)c(OC(=O)c3ccc(OC)cc3)c2c1` (centres unmarked) [compound 62], the “rank (control effect, protective value from lesion number)” value is recorded as “A (protective value ≧80%)”.

As to `CCC(C)c1ccc2nc(C)c(C)c(OC(=O)c3ccc(Cl)cc3)c2c1` (centres unmarked) [compound 63], the “rank (control effect, protective value from lesion number)” value is listed as “A (protective value ≧80%)”.

Take `CCC(C)c1ccc2nc(C)c(C)c(OC(=O)Oc3ccc(OC)cc3)c2c1` (centres unmarked) [compound 69]: the “rank (control effect, protective value from lesion number)” value was “A (protective value ≧80%)”. Still for that read-out and setting: then `CCC(C)c1ccc2nc(C)c(C)c(OC(=O)Oc3ccc(Cl)cc3)c2c1` (centres unmarked) [compound 70], with “A (protective value ≧80%)”; and `Cc1nc2ccc(C(C)(C)C)cc2c(O)c1C` [compound 83], with “A (protective value ≧80%)”.

For the compound `CC(=O)Oc1c(C)c(C)nc2ccc(C(C)(C)C)cc12` [compound 84], the “rank (control effect, protective value from lesion number)” value is given as “A (protective value ≧80%)”.

As to `Cc1nc2ccc(CC(C)C)cc2c(O)c1C` [compound 92], the “rank (control effect, protective value from lesion number)” value is on record as “B (protective value 50 to 79%)”. Turning to `CCC(C)c1ccc2nc(C)c(C)c(OC(=O)C3CCCCC3)c2c1` (centres unmarked) [compound 170], the “rank (control effect, protective value from lesion number)” value is given as “A (protective value ≧80%)”. On to `CCC(C)c1ccc2nc(C)c(C)c(OC(=O)c3ccc([N+](=O)[O-])cc3)c2c1` (centres unmarked) [compound 171], for which the “rank (control effect, protective value from lesion number)” value is given as “B (protective value 50 to 79%)”. Same read-out and setting: then `CCC(C)c1ccc2nc(C)c(C)c(OC(=O)Cc3ccccc3)c2c1` (centres unmarked) [compound 172], with “A (protective value ≧80%)”. On to `CCCCCC(=O)Oc1c(C)c(C)nc2ccc(C(C)CC)cc12` (centres unmarked) [compound 173], for which the “rank (control effect, protective value from lesion number)” value is on record as “A (protective value ≧80%)”. Turning to `CCCCOC(=O)Oc1c(C)c(C)nc2ccc(C(C)CC)cc12` (centres unmarked) [compound 179], the “rank (control effect, protective value from lesion number)” value is recorded as “A (protective value ≧80%)”. `CCCCCCCC(=O)Oc1c(C)c(C)nc2ccc(C(C)CC)cc12` (centres unmarked) [compound 180]: the “rank (control effect, protective value from lesion number)” value is listed as “A (protective value ≧80%)”. Still for that read-out and setting: then `CCc1cccc2nc(C)c(C)c(OC(C)=O)c12` [compound 182], with “B (protective value 50 to 79%)”. With `CCc1ccc2c(OC(C)=O)c(C)c(C)nc2c1` [compound 183], the “rank (control effect, protective value from lesion number)” value is listed as “B (protective value 50 to 79%)”. Still for that read-out and setting: then `CCCCc1cc(Br)c2nc(C)c(C)c(O)c2c1` [compound 186], with “B (protective value 50 to 79%)”; and `Cc1nc2c(C)cc(Br)cc2c(O)c1C` [compound 190], with “B (protective value 50 to 79%)”; and `Cc1nc2ccc(Br)c(C)c2c(O)c1C` [compound 191], with “A (protective value ≧80%)”.

For `Cc1cc2nc(C)c(C)c(O)c2cc1Br` [compound 192], the “rank (control effect, protective value from lesion number)” value is reported as “A (protective value ≧80%)”.

With `Cc1nc2c(F)cc(Br)cc2c(O)c1C` [compound 193], the “rank (control effect, protective value from lesion number)” value is given as “A (protective value ≧80%)”. For the compound `CC(=O)Oc1c(C)c(C)nc2c(C)cc(F)cc12` [compound 198], the “rank (control effect, protective value from lesion number)” value is recorded as “B (protective value 50 to 79%)”. In the case of `CC=C(C)c1ccc2nc(C)c(C)c(O)c2c1` [compound 199], the “rank (control effect, protective value from lesion number)” value is listed as “A (protective value ≧80%)”. For `CC=C(C)c1ccc2nc(C)c(C)c(OC(C)=O)c2c1` [compound 200], the “rank (control effect, protective value from lesion number)” value is listed as “A (protective value ≧80%)”.

Still in this assay, the particulars now being: Pyricularia oryzae, foliar, 144 h, read-out: rank (control effect, protective value from lesion number).
On to `CCCCCc1ccc2nc(C)c(C)c(O)c2c1` [Compound No. 97, 4-hydroxy-2,3-dimethyl-6-n-pentyl-quinoline], for which the pest or weed control at 100 ppm was 50 to 79%. Same read-out and setting: the figure for `CCCCCc1ccc2nc(C)c(C)c(OC(C)=O)c2c1` [Compound No. 98, 4-acetoxy-2,3-dimethyl-6-n-pentyl-quinoline] is greater than 80%; for `CCC(C)c1cc(C)c2nc(C)c(C)c(OC(C)=O)c2c1` (centres unmarked) [Compound No. 206, 4-acetoxy-6-s-butyl-2,3,8-trimethylquinoline] it is greater than 80%. On to `CCC(C)c1cc(F)c2nc(C)c(C)c(OC(C)=O)c2c1` (centres unmarked) [Compound No. 212, 4-acetoxy-6-s-butyl-8-fluoro-2,3-dimethylquinoline], for which the pest or weed control at 100 ppm is greater than 80%. `CCC(C)c1cc(OC)c2nc(C)c(C)c(OC(C)=O)c2c1` (centres unmarked) [Compound No. 220, 4-acetoxy-6-s-butyl-8-methoxy-2,3-dimethylquinoline]: the pest or weed control at 100 ppm was greater than 80%. Same read-out and setting: then `CC=C(C)c1cc(C)c2nc(C)c(C)c(OC(C)=O)c2c1` [Compound No. 360, 4-acetoxy-6-(2-buten-2-yl)-2,3,8-trimethylquinoline], with greater than 80%. As to `CC=C(C)c1cc(F)c2nc(C)c(C)c(OC(C)=O)c2c1` [Compound No. 362, 4-acetoxy-6-(2-buten-2-yl)-8-fluoro-2,3-dimethylquinoline], the pest or weed control at 100 ppm was greater than 80%.

For the next assay, the system named is Sphaerotheca fuliginea. Description: Test for control effect against powdery mildew of Cucurbitaceae (spray on cucumber seedlings). The settings on record: 200 ppm spray, cucumber first foliage leaf, 10 days after inoculation. Format: in vivo. From the text:
Test for Control Effect Against Powdery Mildew of Cucurbitaceae
A spray liquid comprising a test compound whose concentration was adjusted to be 200 ppm by dilution with water was sprayed to a cucumber grown in a vinyl pot of 3 cm in diameter when its first foliage leaf was developed. The air-dried cucumber seedling was inoculated with a conidium suspension of Sphaerotheca fuliginea. Thereafter, the cucumber seedling was transferred in an air-conditioned greenhouse. 10 Days after the inoculation, the disease severity was observed. The protective value was calculated by comparing the disease severity in a treated area with that in an untreated area. Then, control effect was ranked according to the following criterion.
B; protective value 50 to 79%
For the compound `CCc1cc(C(C)CC)cc2c(OC(C)=O)c(C)c(C)nc12` (racemic) [Compound No. 348], the “rank (control effect, protective value from disease severity)” value is reported as “A (protective value ≧80%)”. With `CC(=O)Oc1c(C)c(C)nc2ccc(C3CCCCC3)cc12` [Compound No. 112], the “rank (control effect, protective value from disease severity)” value was “A (protective value ≧80%)”. On the same count and under the same terms, then `CCC(C)c1ccc2nc(C)c(C)c(OC(=O)N(C)C)c2c1` (centres unmarked) [compound 71], with “A (protective value ≧80%)”; and `C=CCC(=O)Oc1c(C)c(C)nc2ccc(C(C)CC)cc12` (centres unmarked) [compound 175], with “A (protective value ≧80%)”; and `CCC(C)c1ccc2nc(C)c(C)c(OC(=O)CC(C)C)c2c1` (centres unmarked) [compound 176], with “A (protective value ≧80%)”. On the same count and under the same terms, then `CC(=O)Oc1c(C)c(C)nc2cc(C)c(Br)cc12` [compound 196], with “A (protective value ≧80%)”.
